In patent US9688765B2, “Methods using RANK/RANKL antagonist antibodies for treating pain” (Antecip Bioventures II LLC, priority 2014, dated 2017):

Columns and labels:
[1] = test system: RANKL expression; details: cultured bone marrow stromal cell line; cited from earlier work
[2] = test system: arthritis pain (mechanical hyperalgesia); experiment: Rat complete Freund's adjuvant (CFA) model of arthritis pain; assay type: in vivo; details: day 14 post CFA
Procedure: The effect of RANK/RANKL antagonism on arthritis pain was examined in the rat complete Freund's adjuvant (CFA) model of arthritis pain. In this model, injection of 100% complete Freund's adjuvant (CFA) in a 75 μL volume into the left hind paws is followed by a 10-14 day period to allow for the development of arthritis pain. Animals were orally administered zoledronic acid 9 mg/kg (or 54 mg/m^2), or zoledronic acid 60 mg/kg (or 360 mg/m^2) to produce RANK/RANKL antagonism, divided in three equal daily doses on the first three days post CFA injection, or vehicle (control). Drug was dissolved in distilled water and prepared fresh daily. Animals were fasted prior to dosing.
Arthritis pain (mechanical hyperalgesia) in the vehicle and drug-treated animals was evaluated on day 14 post CFA injection using a digital Randall-Selitto device (dRS; IITC Life Sciences, Woodland Hills, Calif.). […] Paw compression threshold was measured by applying increasing pressure to the plantar surface of the hind paw with a dome-shaped tip placed between the 3rd and 4th metatarsus. […]
Reversal of arthritis pain in the ipsilateral (CFA-injected) paw was calculated according to the formula: % reversal=(ipsilateral drug threshold−ipsilateral vehicle threshold)/(contralateral vehicle threshold−ipsilateral vehicle threshold)×100. […]

[3] = test system: complex regional pain syndrome; experiment: Treatment of patient suffering from complex regional pain syndrome; assay type: in vivo, human; details: patient one, 60 mg subcutaneously, within 6 months after treatment
Procedure: PROLIA® (denosumab, 60 mg) is administered subcutaneously to a patient suffering from complex regional pain syndrome. […] The injection is repeated every six months.

[4] = test system: pain associated with arthritis; experiment: Treatment of patient suffering from pain associated with arthritis; assay type: in vivo, human; details: patient two, 60 mg subcutaneously, within 6 months after treatment
Procedure: PROLIA® (denosumab, 60 mg) is administered subcutaneously to a patient suffering from pain associated with arthritis. […] IMBRUVICA® (ibrutinib, 420 mg taken orally once daily (three 140 mg capsules once daily)) is administered to a patient suffering from pain associated with arthritis. […] IMBRUVICA® (ibrutinib, 560 mg taken orally once daily, (four 140 mg capsules once daily)) is administered to a patient suffering from pain associated with arthritis.

[5] = test system: low back pain; experiment: Treatment of patient suffering from low back pain; assay type: in vivo, human; details: patient two, 60 mg subcutaneously, within 6 months after treatment
Procedure: PROLIA® (denosumab, 60 mg) is administered subcutaneously to a patient suffering from low back pain. […] The injection is repeated every six months. IMBRUVICA® (ibrutinib, 420 mg taken orally once daily (three 140 mg capsules once daily)) is administered to a patient suffering from low back pain. […] IMBRUVICA® (ibrutinib, 560 mg taken orally once daily, (four 140 mg capsules once daily)) is administered to a patient suffering from low back pain.

[6] = test system: neuropathic pain; experiment: Treatment of patient suffering from neuropathic pain; assay type: in vivo, human; details: patient one, 60 mg subcutaneously, within 6 months after treatment
Procedure: PROLIA® (denosumab, 60 mg) is administered subcutaneously to a patient suffering from neuropathic pain. […] The injection is repeated every six months.

[7] = test system: pain associated with osteoarthritis; experiment: Treatment of patient suffering from pain associated with osteoarthritis; assay type: in vivo, human; details: patient one, 60 mg subcutaneously, within 6 months after treatment
Procedure: PROLIA® (denosumab, 60 mg) is administered subcutaneously to a patient suffering from pain associated with osteoarthritis. […] The injection is repeated every six months. IMBRUVICA® (ibrutinib, 420 mg taken orally once daily (three 140 mg capsules once daily)) is administered to a patient suffering from pain associated with osteoarthritis. […] IMBRUVICA® (ibrutinib, 560 mg taken orally once daily, (four 140 mg capsules once daily)) is administered to a patient suffering from pain associated with osteoarthritis.

For `O=P(O)(O)C(O)(Cc1cnc2ccccn12)P(=O)(O)O` [Minodronic acid, minodronic acid], which RANKL expression [1] is on record?
The RANKL expression was “inhibit[] RANKL expression”.

For `O=P(O)(O)C(O)(Cn1ccnc1)P(=O)(O)O` [zoledronic acid], which “reversal of arthritis pain” value ([2]; oral 9 mg/kg (54 mg/m^2) total in three daily doses) is on record?
Its value is 33%.

What about the “reversal of arthritis pain” value ([2]; oral 60 mg/kg (360 mg/m^2) total in three daily doses) of the same molecule?
Its value is 54%.

With denosumab [PROLIA] as the molecule, how does the “pain experienced by patient” value [3] read?
Its value is “less pain”.

And the “pain experienced by patient” value [4]?
The value was “less pain”.

What about the “pain experienced by patient” value [5] of the same molecule?
The value was “less pain”.

What about the “pain experienced by patient” value [6] of the same molecule?
The value was “less pain”.

And the “pain experienced by patient” value [7]?
Its value is “less pain”.
